Source: PubChem BioAssay (NCI)
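Step 1: Grow cells in 96-well plates. Step 2: Expose to compound for 48 hours at 5 concentrations. Step 3: Interpolate endpoints linearly; if unreached, use highest concentration. GI50: concentration for 50% inhibition of growth. TGI: total growth inhibition.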

Tests used:
Assay in all cases: NCI-60 cell line screen, 48 h
CCRF-CEM leukemia = test system: CCRF-CEM leukemia
HCT-116 colon = test system: HCT-116 colon
HOP-62 NSCLC = test system: HOP-62 NSCLC
HT29 colon = test system: HT29 colon
M14 melanoma = test system: M14 melanoma
MOLT-4 leukemia = test system: MOLT-4 leukemia
OVCAR-3 ovarian = test system: OVCAR-3 ovarian
OVCAR-8 ovarian = test system: OVCAR-8 ovarian
TK-10 renal = test system: TK-10 renal
U251 CNS = test system: U251 CNS

| Compound | TGI (CCRF-CEM leukemia) | TGI (HCT-116 colon) | TGI (HOP-62 NSCLC) | TGI (HT29 colon) | TGI (M14 melanoma) | TGI (MOLT-4 leukemia) | TGI (OVCAR-3 ovarian) | TGI (OVCAR-8 ovarian) | TGI (TK-10 renal) | TGI (U251 CNS) | GI50 (CCRF-CEM leukemia) | GI50 (HCT-116 colon) | GI50 (HOP-62 NSCLC) | GI50 (HT29 colon) | GI50 (M14 melanoma) | GI50 (MOLT-4 leukemia) | GI50 (OVCAR-3 ovarian) | GI50 (OVCAR-8 ovarian) | GI50 (TK-10 renal) | GI50 (U251 CNS) |
| --- | --- | --- | --- | --- | --- | --- | --- | --- | --- | --- | --- | --- | --- | --- | --- | --- | --- | --- | --- | --- |
| CC(=O)O[C@]1(C)OC(=O)[C@@H](C)N1[N+](=O)[O-] | > 100 µM | > 100 µM | > 100 µM | > 100 µM | > 100 µM | > 100 µM | > 100 µM | > 100 µM | > 100 µM | > 100 µM |  |  |  |  |  |  |  |  |  |  |
| CN(C)c1ncnc2c1nnn2C1OC(CO)C(O)C1O (stereo not given) | > 100 µM | > 100 µM | > 100 µM | > 24.7 µM | 1.14 µM | > 100 µM | 2.46 µM | > 100 µM | > 100 µM | > 100 µM | 0.0662 µM | 0.431 µM | 0.405 µM | 0.128 µM | 0.0515 µM | 0.0635 µM | 0.308 µM | 0.0759 µM | 0.25 µM | 1.6 µM |
| Cc1cccc(C(=O)/C=C/SC(=NC#N)SCc2ccccc2)c1 | > 100 µM | > 100 µM | 45.4 µM | > 100 µM | 59.1 µM | > 100 µM | 89.7 µM | > 100 µM | 32 µM | 99.4 µM | 3.23 µM | 27.2 µM | 23.2 µM | 56.5 µM | 24.8 µM | 6.72 µM | 16.7 µM | 35.6 µM | 13.1 µM | 22.5 µM |
| Cn1cc(C2=C(c3cccnc3)C(=O)NC2=O)c2ccccc21 | > 25 µM | > 25 µM | > 25 µM | > 25 µM | > 25 µM | > 25 µM | > 25 µM | > 25 µM | > 25 µM | > 25 µM | 10.5 µM | 15 µM | > 21.9 µM | > 25 µM | > 25 µM | > 21.6 µM | 15 µM | > 25 µM | > 25 µM | 18.8 µM |
| COc1ccc(C2=NN(C(=O)c3cc(OC)c(OC)c(OC)c3)C(c3ccc(Cl)cc3)C2)cc1OC (stereo not given) | > 100 µM | 19.7 µM | 32 µM | > 100 µM | > 100 µM | > 100 µM | 1.71 µM | > 58.6 µM | > 81.6 µM | 42.2 µM | 2.34 µM | 2.04 µM | 5.24 µM | 1.4 µM | 4.66 µM | 2.73 µM | 0.464 µM | 4.63 µM | 3.63 µM | 3.67 µM |
| CC/C(=C(/CC)c1ccc([O-])cc1)c1ccc([O-])cc1.CC/C(=C(\CC)c1ccc([O-])cc1)c1ccc([O-])cc1.O=C([CH-]C(=O)c1ccccc1)c1ccccc1.O=C([CH-]C(=O)c1ccccc1)c1ccccc1.O=C([CH-]C(=O)c1ccccc1)c1ccccc1.O=C([CH-]C(=O)c1ccccc1)c1ccccc1.[Ti+4].[Ti+4] | 93.8 µM | > 100 µM | 51.3 µM | > 100 µM | 78.8 µM | > 100 µM | > 100 µM | 50.1 µM | > 100 µM | 82 µM | 21 µM | 28.8 µM | 22.5 µM | 29.8 µM | 20.7 µM | 27.7 µM | 24.9 µM | 20.7 µM | 45.2 µM | 24.9 µM |
